Results on three compounds are retold here after ChEMBL document CHEMBL1156431, “15-deoxyspergualin primarily targets the trafficking of apicoplast proteins in Plasmodium falciparum” (J Biol Chem, 2007).

For test [1], the system named is Plasmodium falciparum. Briefly: Inhibition of fatty acid synthesis in Plasmodium falciparum FCK2 trophozoites at 10 uM. The format is functional, organism-based.
The test system of test [2] is Plasmodium falciparum. Put plainly: Growth inhibition as apicoplast copy number of Plasmodium falciparum FCK2 at 100 nM by [3H]hypoxanthine uptake. The format is functional.
The test system of test [3] is Plasmodium falciparum. Put plainly: TufA expression level in Plasmodium falciparum FCK2 first asexual cycle. The format is functional, organism-based.
The subject of test [4] is Plasmodium falciparum. Briefly: Growth inhibition of Plasmodium falciparum FCK2 as apicoplast copy numbers at 1 uM in [3H]hypoxanthine uptake. It counts as functional.
For test [5], the system named is Plasmodium falciparum. Briefly: Inhibition of fatty acid synthesis in Plasmodium falciparum FCK2 ring stage at 1 uM. The format is functional, organism-based.
Test [6] relates to Plasmodium falciparum. Briefly: Decreased processed NEAT protein FabG level in Plasmodium falciparum FCK2 first asexual cycle. It counts as functional, organism-based.
Test [7] can be described thus: Inhibition of putrescine transporter-mediated [3H]putrescine transport in human red blood cells. The format is cell-based.
Test [8] relates to Plasmodium falciparum. Put plainly: Antimalarial activity against Plasmodium falciparum FCK2 by [3H]hypoxanthine uptake. The format is functional, organism-based.
Test [9] concerns Plasmodium falciparum. Put plainly: Inhibition of spermidine transporter-mediated [3H]spermidine transport in Plasmodium falciparum FCK2 infected human red blood cells at 1 mM.
In test [10] the test system is Plasmodium falciparum. Briefly: Actin expression level in Plasmodium falciparum FCK2. It counts as functional, organism-based.
Test [11] can be described thus: Inhibition of putrescine transporter-mediated [3H]putrescine transport in Plasmodium falciparum FCK2 infected human red blood cells.
Test [12] deals with Plasmodium falciparum. Put plainly: Antimalarial activity against Plasmodium falciparum FCK2 infected human erythrocytes with exogenous spermidine. The format is functional, organism-based.
Test [13] concerns Plasmodium falciparum. Put plainly: Inhibition of fatty acid synthesis in Plasmodium falciparum FCK2 shizonts at 1 uM. It counts as functional, organism-based.
For test [14], the system named is Plasmodium falciparum. Briefly: Inhibition of fatty acid synthesis in Plasmodium falciparum FCK2 trophozoites at 1 uM. The format is functional, organism-based.
A short description of test [15]: Inhibition of spermidine transporter-mediated [3H]spermidine transport in human red blood cells. The format is cell-based.
Test [16] relates to Plasmodium falciparum. Briefly: Antimalarial activity as reduced parasitaemia after 12 hrs against Plasmodium falciparum FCK2 second asexual cycle at 1 uM by [3H]hypoxanthine uptake. The format is functional, organism-based.
Test [17] deals with Plasmodium falciparum. Put plainly: Inhibition of protein synthesis in Plasmodium falciparum FCK2 by [35S]methionine uptake. The format is functional, organism-based.
In test [18] the test system is Plasmodium falciparum. Briefly: Inhibition of fatty acid synthesis in late trophozoite Plasmodium falciparum FCK2 at 1 uM. The format is functional, organism-based.

Structures are written as SMILES. Calls of active or inactive are those of the source. No cut-off for these calls is given here.

Regarding `Oc1cc(Cl)ccc1Oc1ccc(Cl)cc1Cl`, in test [1], the result was Active.
The compound `CCC[C@@H]1C[C@@H](C(=O)N[C@@H]([C@H]2O[C@H](SC)[C@H](O)[C@@H](O)[C@H]2O)[C@H](C)Cl)N(C)C1` [CLINDAMYCIN] gave an Activity in test [2] of 0.4. Besides, the result in test [3] was Active.
Regarding `N=C(N)NCCCCCCC(=O)NC(O)C(=O)NCCCCNCCCN` (centres undefined) [GUSPERIMUS], the result in test [3], in test [5], in test [9], in [10], in test [14] and in [16] was inactive. In addition, in test [18], the result was inactive. Moreover, in test [4], the Activity came out at 0.13. The outcome in [6], in [12] and in [13] was Active. The IC50 in test [7] was 924 µM; in test [8], 0.148 µM; in [11], 1120 µM; in test [15] it was 372 µM; in test [17], 443 µM.

The term IC50 denotes the midpoint of a concentration-inhibition curve. Low readings indicate inhibition by little substance, high ones a need for much substance.
